From paper PMC2199025 (The Journal of Experimental Medicine, 1997) come the findings set out here.

As usually defined, the IC50 is the concentration that inhibits the measured activity by half. Higher therefore signals lower potency.

Ends that are not written are not given here.

Assay [1] addresses H-2K^b (Mus musculus, UniProt P01901). Nature of the assay: Peptide competition cytotoxicity assay. Type of assay: cell-based, murine.
Assay [2] has as its target T1, transporters associated with processing (Mus musculus, UniProt P21958+P36371).
T1 sequence (P21958 1-724): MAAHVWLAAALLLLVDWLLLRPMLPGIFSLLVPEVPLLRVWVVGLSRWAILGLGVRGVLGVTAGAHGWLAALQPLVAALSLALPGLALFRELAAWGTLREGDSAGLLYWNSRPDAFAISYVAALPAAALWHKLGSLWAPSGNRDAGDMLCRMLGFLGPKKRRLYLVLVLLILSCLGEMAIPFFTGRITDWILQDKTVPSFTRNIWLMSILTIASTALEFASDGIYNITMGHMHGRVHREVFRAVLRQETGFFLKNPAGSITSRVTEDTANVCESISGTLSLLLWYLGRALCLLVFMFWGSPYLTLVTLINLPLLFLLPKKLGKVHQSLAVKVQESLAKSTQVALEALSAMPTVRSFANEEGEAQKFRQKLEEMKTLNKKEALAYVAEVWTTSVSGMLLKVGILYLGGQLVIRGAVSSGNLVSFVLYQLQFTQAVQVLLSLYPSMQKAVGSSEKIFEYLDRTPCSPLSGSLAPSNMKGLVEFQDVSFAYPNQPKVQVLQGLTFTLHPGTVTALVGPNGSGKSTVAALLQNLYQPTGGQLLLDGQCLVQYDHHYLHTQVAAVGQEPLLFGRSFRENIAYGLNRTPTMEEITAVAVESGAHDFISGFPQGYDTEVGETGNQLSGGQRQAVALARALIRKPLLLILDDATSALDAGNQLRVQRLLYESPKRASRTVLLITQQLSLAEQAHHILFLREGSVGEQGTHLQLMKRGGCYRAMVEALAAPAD
T1 sequence (P36371 1-702): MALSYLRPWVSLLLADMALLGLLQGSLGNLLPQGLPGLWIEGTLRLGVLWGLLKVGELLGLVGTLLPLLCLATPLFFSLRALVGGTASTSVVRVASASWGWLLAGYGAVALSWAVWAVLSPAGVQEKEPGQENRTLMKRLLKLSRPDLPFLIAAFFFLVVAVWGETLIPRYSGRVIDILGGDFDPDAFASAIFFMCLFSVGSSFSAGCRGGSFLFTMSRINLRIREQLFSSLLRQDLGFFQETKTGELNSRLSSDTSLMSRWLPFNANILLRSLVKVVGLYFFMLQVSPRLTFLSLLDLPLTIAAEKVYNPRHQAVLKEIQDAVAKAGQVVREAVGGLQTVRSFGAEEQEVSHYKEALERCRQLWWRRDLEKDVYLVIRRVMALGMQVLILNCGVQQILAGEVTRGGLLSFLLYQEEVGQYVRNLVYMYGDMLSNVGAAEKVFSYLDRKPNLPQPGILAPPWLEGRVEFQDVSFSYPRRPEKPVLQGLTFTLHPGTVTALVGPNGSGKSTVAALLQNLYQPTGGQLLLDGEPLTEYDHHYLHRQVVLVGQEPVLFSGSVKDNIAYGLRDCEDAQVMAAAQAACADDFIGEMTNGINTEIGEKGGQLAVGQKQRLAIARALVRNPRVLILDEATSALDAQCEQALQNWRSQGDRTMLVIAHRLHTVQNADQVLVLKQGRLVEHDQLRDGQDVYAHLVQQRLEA
Nature of the assay: Transporter associated with processing. Type of assay: biochemical.

For the sequence AIYKKSQHM, the IC50 is 0.271 µM in assay [1] and 4.07 µM in assay [2]. For LNKLFCQL, in that order: 2.04 µM and 7.16 µM. For the sequence TYSPPLNKL, the IC50 was 13.6 µM in assay [1] and 5.81 µM in assay [2]. Take YSPPLNKLF: the half-inhibitory concentration (IC50) in assay [1] was 0.464 µM; in assay [2], above 92.7 µM. TTIHYKYM gave a half-inhibitory concentration (IC50) in assay [2] of 5.68 µM.

As for VMCTYSPPL, the IC50 in assay [2] is 2.47 µM.
